Like-named read-outs stand apart in the source and are kept apart here.
Key:
TNFα = experiment: cells; format: cell-based, human; conditions: Homo sapiens, Monocyte, LPS-stimulated human monocytes, read-out: EC50 TNF
IRAK4 enzyme = IRAK4 enzyme (Homo sapiens (Human), UniProt Q9NWZ3); experiment: biochemical; format: biochemical; conditions: IRAK4 enzyme, 500 μM ATP
Sequence of IRAK4 enzyme (Q9NWZ3 whole entry): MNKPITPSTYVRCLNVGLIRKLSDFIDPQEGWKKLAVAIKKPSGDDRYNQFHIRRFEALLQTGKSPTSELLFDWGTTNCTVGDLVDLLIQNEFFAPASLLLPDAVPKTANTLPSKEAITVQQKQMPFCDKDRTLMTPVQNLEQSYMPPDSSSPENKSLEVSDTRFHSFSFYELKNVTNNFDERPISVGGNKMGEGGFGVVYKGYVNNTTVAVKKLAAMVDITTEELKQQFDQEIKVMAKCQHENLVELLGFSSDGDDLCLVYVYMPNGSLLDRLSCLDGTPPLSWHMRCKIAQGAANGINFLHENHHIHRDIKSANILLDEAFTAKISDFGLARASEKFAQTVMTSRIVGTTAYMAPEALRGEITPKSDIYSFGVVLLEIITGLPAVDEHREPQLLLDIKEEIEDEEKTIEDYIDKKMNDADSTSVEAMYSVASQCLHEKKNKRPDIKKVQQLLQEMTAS

Structure (SMILES) | EC50 (TNFα; TNFα by TR-FRET) [nM] | IC50 (IRAK4 enzyme; TR-FRET) [nM] | EC50 (TNFα; TNFα content) [nM] | IC50 (IRAK4 enzyme; TR-FRET (HTRF)) [nM]
COC(=O)NC1CCN(c2ccc(Nc3cc(-c4ccc5cc(C#N)cnn45)ncc3C(=O)NC[C@@H](F)C(C)(C)O)cn2)CC1 [Example 881, (R)-methyl (1-(5-((2-(3-cyanopyrrolo[1,2-b]pyridazin-7-yl)-5-((2-fluoro-3-hydroxy-3-methylbutyl)carbamoyl)pyridin-4-yl)amino)pyridin-2-yl)piperidin-4-yl)carbamate] | 84 | < 1 | – | –
CC(C)Nc1cc(-c2ccc3cc(C(N)=O)cnn23)ncc1C(=O)NCC1CS(=O)(=O)C1 [Example 79, 7-(5-(((1,1-dioxidothietan-3-yl)methyl)carbamoyl)-4-(isopropylamino)pyridin-2-yl)pyrrolo[1,2-b] pyridazine-3-carboxamide] | – | 18 | 1820 | –
CC(C)(O)[C@H](F)CNC(=O)c1cnc(-c2ccc3cc(C#N)cnn23)cc1Nc1ccc2c(C#N)c[nH]c2c1 [Example 571, (R)-4-((3-cyano-1H-indol-6-yl)amino)-6-(3-cyano-pyrrolo[1,2-b]pyridazin-7-yl)-N-(2-fluoro-3-hydroxy-3-methylbutyl)nicotinamide] | – | – | 12 | < 1
N#Cc1cnn2c(-c3cc(NC45CCC(O)(CC4)CC5)c(C(=O)N[C@@H]4CCCNC4=O)cn3)ccc2c1 [Example 958, (R)-6-(3-cyanopyrrolo[1,2-b]pyridazin-7-yl)-4-((4-hydroxybicyclo[2.2.2]octan-1-yl)amino)-N-(2-oxo-piperidin-3-yl)nicotinamide] | 219 | 1 | – | –
COC(=O)N[C@H]1CC[C@H](Nc2cc(-c3ccc4cc(C#N)cnn34)ncc2C(=O)NCC#N)CC1 [Example 268, Methyl ((1R,4R)-4-((5-((cyanomethyl)carbamoyl)-2-(3-cyanopyrrolo[1,2-b]pyridazin-7-yl)pyridin-4-yl)amino)cyclohexyl)carbamate] | – | < 1 | 29 | –
CC(C)(O)[C@H](F)CNC(=O)c1cnc(-c2ccc3cc(C#N)cnn23)cc1Nc1ccc2nncn2c1 [Example 973, (R)-4-([1,2,4]triazolo[4,3-a]pyridin-6-ylamino)-6-(3-cyanopyrrolo[1,2-b]pyridazin-7-yl)-N-(2-fluoro-3-hydroxy-3-methylbutyl)nicotinamide] | 1910 | 2 | – | –
CN(C)C(=O)OC[C@H]1C[C@H](Nc2cc(-c3ccc4cc(C#N)cnn34)ncc2C(=O)NC[C@@H](F)C(C)(C)O)C1 [Example 734, ((1R,3r)-3-((2-(3-cyanopyrrolo[1,2-b]pyridazin-7-yl)-5-(((R)-2-fluoro-3-hydroxy-3-methylbutyl)carbamoyl)pyridin-4-yl)amino)cyclo-butyl)methyldimethyl-carbamate] | – | – | 29 | < 1
CC(=O)NC12CC(NC(=O)c3cnc(-c4ccc5cc(C#N)cnn45)cc3NC(C)C)(C1)C2 [Example 132, N-(3-acetamidobicyclo [1.1.1]pentan-1-yl)-6-(3-cyanopyrrolo[1,2-b]pyridazin-7-yl)-4-(isopropylamino) nicotinamide] | – | 5 | 222 | –
CC(C)(O)[C@H](F)CNC(=O)c1cnc(-c2ccc3cc(C#N)cnn23)cc1Nc1ccc(Cn2ccccc2=O)cc1 [Example 719, (R)-6-(3-cyanopyrrolo[1,2-b]pyridazin-7-yl)-N-(2-fluoro-3-hydroxy-3-methylbutyl)-4-((4-((2-oxopyridin-1(2H)-yl)methyl)phenyl)amino)nicotinamide] | – | – | 11 | < 1
[2H]C([2H])([2H])NC(=O)c1cnc(-c2ccc3cc(C#N)cnn23)cc1NC12CCC(O)(CC1)CC2 [Example 358, 6-(3-cyanopyrrolo[1,2-b]pyridazin-7-yl)-4-((4-hydroxybicyclo[2.2.2]octan-1-yl)amino)-N-(methyl-d3)nicotinamide] | – | 3 | 122 | –
CC(=O)Nc1nc(NC(=O)c2cnc(-c3ccc4cc(C#N)cnn34)cc2NC(C)C)cs1 [Example 493, N-(2-acetamidothiazol-4-yl)-6-(3-cyanopyrrolo[1,2-b]pyridazin-7-yl)-4-(isopropylamino)nicotinamide] | – | – | > 10000 | 12
CNC(=O)C12CCC(Nc3cc(-c4ccc5cc(C#N)cnn45)ncc3C(=O)NCC#N)(CC1)CC2 [Example 475, N-(cyanomethyl)-6-(3-cyanopyrrolo[1,2-b]pyridazin-7-yl)-4-((4-(methylcarbamoyl)bicyclo[2.2.2]octan-1-yl)amino)nicotinamide] | – | – | 16 | < 1
CC(C)(O)[C@H](F)CNC(=O)c1cnc(-c2ccc3cc(C#N)cnn23)cc1NCCc1ccc(F)cc1 [Example 707, (R)-6-(3-cyanopyrrolo[1,2-b]pyridazin-7-yl)-N-(2-fluoro-3-hydroxy-3-methylbutyl)-4-((4-fluorophenethyl)amino) nicotinamide] | – | – | 42 | 1
N#Cc1cnn2c(-c3cc(NC45CCC(O)(CC4)CC5)c(C(=O)NCC(=O)N4CCOCC4)cn3)ccc2c1 [Example 785, 6-(3-cyanopyrrolo[1,2-b]pyridazin-7-yl)-4-((4-hydroxybicyclo[2.2.2]octan-1-yl)amino)-N-(2-morpholino-2-oxoethyl)nicotinamide] | – | – | 23 | < 1
CC(=O)OC12CCC(Nc3cc(-c4ccc5cc(C#N)cnn45)ncc3C(=O)NC[C@@H](F)C(C)(C)OC(C)=O)(CC1)CC2 [Example 417, 4-((5-(((R)-3-acetoxy-2-fluoro-3-methylbutyl)carbamoyl)-2-(3-cyanopyrrolo[1,2-b]pyridazin-7-yl)pyridin-4-yl)amino)bicyclo[2.2.2]octan-1-yl acetate] | – | – | 151 | 5
Cn1cc(CNc2cc(-c3ccc4cc(C#N)cnn34)ncc2C(=O)NC[C@@H](F)C(C)(C)O)cn1 [Example 104, (R)-6-(3-cyanopyrrolo[1,2-b]pyridazin-7-yl)-N-(2-fluoro-3-hydroxy-3-methylbutyl)-4-(((1-methyl-1H-pyrazol-4-yl)methyl)amino) nicotinamide] | – | 6 | 274 | –
CC(=O)NC12CCC(Nc3cc(-c4ccc5cc(C#N)cnn45)ncc3C(=O)NC[C@@H](F)C(C)(C)O)(CC1)C2 [Example 499, (R)-4-((4-acetamidobicyclo[2.2.1]heptan-1-yl)amino)-6-(3-cyanopyrrolo[1,2-b]pyridazin-7-yl)-N-(2-fluoro-3-hydroxy-3-methylbutyl)nicotinamide] | – | – | 20 | 1
CC(=O)N1CCC(Nc2cc(-c3ccc4cc(C#N)cnn34)ncc2C(=O)NC[C@@H](F)C(C)(C)O)CC1 [Example 16, (R)-4-((1-acetylpiperidin-4-yl)amino)-6-(3-cyanopyrrolo[1,2-b]pyridazin-7-yl)-N-(2-fluoro-3-hydroxy-3-methylbutyl)nicotinamide] | – | 2 | 204 | –
CN(C)C(=O)N[C@H]1CC[C@H](Nc2cc(-c3ccc4cc(C#N)cnn34)ncc2C(=O)NC[C@@H](F)C(C)(C)O)CC1 [Example 286, 6-(3-cyanopyrrolo[1,2-b]pyridazin-7-yl)-4-(((1r,4R)-4-(3,3-dimethylureido)cyclohexyl)amino)-N-((R)-2-fluoro-3-hydroxy-3-methylbutyl)nicotinamide] | – | 1 | 41 | –
CC(C)Nc1cc(-c2ccc3cc(C#N)cnn23)ncc1C(=O)NC1CCC(C)(O)CC1 (stereo not drawn) [Example 90, 6-(3-cyanopyrrolo[1,2-b]pyridazin-7-yl)-N-((1s,4s)-4-hydroxy-4-methylcyclohexyl)-4-(isopropylamino) nicotinamide] | – | 3 | 417 | –
CNC(=O)c1ccc(Nc2cc(-c3ccc4cc(C#N)cnn34)ncc2C(=O)NCC#N)cc1 [Example 451, N-(cyanomethyl)-6-(3-cyanopyrrolo[1,2-b]pyridazin-7-yl)-4-((4-(methylcarbamoyl)phenyl)amino) nicotinamide] | – | – | 30 | < 1
CC(C)(O)[C@H](F)CNC(=O)c1cnc(-c2ccc3cc(C#N)cnn23)cc1NC[C@H]1CCNC1 [Example 899, 6-(3-cyanopyrrolo[1,2-b]pyridazin-7-yl)-N-((R)-2-fluoro-3-hydroxy-3-methylbutyl)-4-((((S)-pyrrolidin-3-yl)methyl)amino)nicotinamide] | > 10000 | 5 | – | –
CC1(O)CC2(CC(Nc3cc(-c4ccc5cc(C#N)cnn45)ncc3C(=O)NCC#N)C2)C1 (stereo not drawn) [Example 452, N-(cyanomethyl)-6-(3-cyanopyrrolo[1,2-b]pyridazin-7-yl)-4-((6-hydroxy-6-methyl-spiro[3.3]heptan-2-yl)amino)nicotinamide] | – | – | 112 | < 1
CC(C)(O)[C@H](F)CNC(=O)c1cnc(-c2ccc3cc(C#N)cnn23)cc1Nc1ccc(CNCC(F)(F)F)cc1 [Example 198, (R)-6-(3-cyanopyrrolo[1,2-b]pyridazin-7-yl)-N-(2-fluoro-3-hydroxy-3-methylbutyl)-4-((4-(((2,2,2-trifluoroethyl)amino)methyl)phenyl)amino)nicotinamide] | – | < 1 | 16 | –
CC(C)(O)[C@H](F)CNC(=O)c1cnc(-c2ccc3cc(C#N)cnn23)cc1Nc1cnn([C@@H]2CCNC2)c1 [Example 208, 6-(3-cyanopyrrolo[1,2-b]pyridazin-7-yl)-N-((R)-2-fluoro-3-hydroxy-3-methylbutyl)-4-((1-((R)-pyrrolidin-3-yl)-1H-pyrazol-4-yl)amino) nicotinamide] | – | < 1 | 92 | –
COc1cc(Nc2cc(-c3ccc4cc(C#N)cnn34)ncc2C(=O)NC[C@@H](F)C(C)(C)O)ccc1C#N [Example 611, (R)-4-((4-cyano-3-methoxy-phenyl)amino)-6-(3-cyanopyrrolo[1,2-b]pyridazin-7-yl)-N-(2-fluoro-3-hydroxy-3-methylbutyl)nicotinamide] | – | – | > 10000 | 15
CC(C)(O)[C@H](F)CNC(=O)c1cnc(-c2ccc3cc(C#N)cnn23)cc1NN1CCOCC1 [Example 44, (R)-6-(3-cyanopyrrolo[1,2-b]pyridazin-7-yl)-N-(2-fluoro-3-hydroxy-3-methylbutyl)-4-(morpholinoamino) nicotinamide] | – | 6630 | > 10000 | –

— patent US10336762B2 (priority 2017, dated 2019)
